Reference: paper PMC6238273, “First in vivo evaluation of a potential SPECT brain radiotracer for the gonadotropin releasing hormone receptor” (BMC Research Notes, 2018)
Entries after “also recorded” stand apart in the source; their conditions may differ.

Columns and labels:
[1] = In vivo stability: radio-HPLC of blood samples 1 h post injection; details: rat blood samples 1 h post injection
Protocol: (§1) The stability of Compound-1 was initially investigated in saline. Compound-1 was dissolved in ethanol:Polysorbate 80:water (5:5:90) then incubated with 300 µl 0.9% NaCl at ambient temperature to give a final concentration of 6.5 mM (millimolar). Aliquots were taken at 0, 60, 120 and 1560 min, then analysed by LC–MS. Furthermore, Compound-1 was investigated in human and rat serum. Compound-1 in ethanol:Polysorbate 80:water (5:5:90) was incubated with 400 µl human and 300 µl rat serum at 37 °C to give a final concentration of 5 mM and 6.5 mM. Aliquots (40–50 µl) from previous mixtures was extracted with ice-cold acetonitrile at 0, 10, 30, 60, 120, 240 and 1320 min post-incubation. Samples were centrifuged at 13,000g for 5 min. The supernatants were analysed by LC–MS. Serum experiments were performed in triplicate. Additionally, [^123I]-Compound-1 was evaluated for in vivo stability by analyzing blood samples after 1 h post injection. The blood samples were centrifuged and the supernatant was injected on the radio-HPLC.

[2] = Biodistribution in rats (gamma counter, % ID/g); type: in vivo; details: rat
Protocol: Compound-1 SPECT brain imaging and biodistribution were examined post injection in rats. All animal procedures were performed under isoflurane anesthesia (Induction 4%, Maintenance 2% in oxygen). One group of rats was injected intravenous (iv.) with [^123I]-Compound-1 (1.67 MBq ± 0.28, n = 3). A second group was injected intraperitoneal (ip.) (4.12 MBq ± 0.56, n = 3). A third group of animals was injected iv. with Na^123I (1.53 MBq ± 0.37 SD, n = 3). Biodistribution of these compounds was studied after the SPECT imaging sessions 1 h post-injection (in the iv. groups) and 2 and 5 h post-administration in the ip. group. Rats were positioned with the brain in the center of the field of view inside a 4 detector configuration Triumph™ II X-SPECT^Ⓡ small animal PET/SPECT/CT scanner (Trifoil Imaging, Northridge Tri-Modality Imaging, Inc., Chatsworth, CA). Heart rate and breathing was monitored with sensors inside a closed animal cell (Equipment Veterinaire Minerve, Esternay) and the temperature on the heated air flow inside the cell was set to 35 °C to prevent hypothermia. Dynamic SPECT acquisitions for 30 and 60 min with 6–12 image frames (5 min duration) were obtained for the animals which were used for 1–2 h biodistribution studies respectively. The animals subjected to the 5 h biodistribution study were scanned after an average of 4 h and 20 min, a static SPECT of 30 min was acquired. 1.0 mm 5-multipinhole collimator (N5F65A10) and 50 mm radius of rotation (ROR). Images were reconstructed using a 20% energy window and Ordered Subset Expectation Maximization (OSEM) algorithm with 5 iterations and 8 subsets. Computed tomography (CT) was performed using 80 kVp, 2 × 2 binning, 512 projections and 1.3× magnification, immediately after SPECT imaging. The raw data were reconstructed using Filtered Back Projection. Images were analyzed using PMOD (PMOD Technologies Ltd., Zürich). Volumes of interests (VOI) representing the brain-tissue, non-brain-tissue and background regions were delineated based on the anatomical CT images, and transferred to the co-registered dynamic SPECT data. In addition, an average SPECT image over all time frames was calculated for each animal.
Animals were euthanized with an overdose of pentobarbital (ip. […]) and organs were collected, weighed and analysed for radioactivity measurements on an automatic gamma counter (Wizard^2 2480, Perkin Elmer, USA). Organ distribution was expressed as percentage of injected dose per gram for the organs selected (% ID/g).

Rat brain SPECT imaging = type: in vivo
Protocol: Compound-1 SPECT brain imaging and biodistribution were examined post injection in rats. All animal procedures were performed under isoflurane anesthesia (Induction 4%, Maintenance 2% in oxygen). One group of rats was injected intravenous (iv.) with [^123I]-Compound-1 (1.67 MBq ± 0.28, n = 3). A second group was injected intraperitoneal (ip.) (4.12 MBq ± 0.56, n = 3). A third group of animals was injected iv. with Na^123I (1.53 MBq ± 0.37 SD, n = 3). Biodistribution of these compounds was studied after the SPECT imaging sessions 1 h post-injection (in the iv. groups) and 2 and 5 h post-administration in the ip. group. Rats were positioned with the brain in the center of the field of view inside a 4 detector configuration Triumph™ II X-SPECT^Ⓡ small animal PET/SPECT/CT scanner (Trifoil Imaging, Northridge Tri-Modality Imaging, Inc., Chatsworth, CA). Heart rate and breathing was monitored with sensors inside a closed animal cell (Equipment Veterinaire Minerve, Esternay) and the temperature on the heated air flow inside the cell was set to 35 °C to prevent hypothermia. […] Images were analyzed using PMOD (PMOD Technologies Ltd., Zürich). […] In addition, an average SPECT image over all time frames was calculated for each animal.

hGnRHR = target: T1, hGnRHR (Homo sapiens, UniProt P30968); assay: Competitive binding for LHRH/GnRH by fluorescence based FLIPR-assay in HEK293T cells stably expressing GnRH receptors; type: cell-based; details: for Ki: 5 nM LHRH agonist, Ki by cheng-prusoff equation; for IC50: competition with 5 nM LHRH agonist, read-out: hGnRHR pIC50 (converted)
T1 construct: host or cells: HEK293T
T1 sequence (P30968 1-328): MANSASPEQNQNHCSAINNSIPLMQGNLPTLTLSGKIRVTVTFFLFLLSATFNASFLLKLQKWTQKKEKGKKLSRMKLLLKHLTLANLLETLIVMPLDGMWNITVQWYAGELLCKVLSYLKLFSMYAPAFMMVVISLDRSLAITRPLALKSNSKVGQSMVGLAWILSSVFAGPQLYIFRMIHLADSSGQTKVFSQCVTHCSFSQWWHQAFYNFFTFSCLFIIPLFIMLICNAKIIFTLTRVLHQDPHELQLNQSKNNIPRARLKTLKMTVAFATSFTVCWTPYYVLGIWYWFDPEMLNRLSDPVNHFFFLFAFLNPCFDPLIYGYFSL
Protocol: HEK293T (division arrested cell-line, Multispan Inc. USA) cells stably expressing GnRH receptors were used to measure the competitive binding for LHRH/GnRH by a fluorescence based FLIPR-assay. Compound-1 was tested in concentrations from 50 µM to 0.5 nM with 5 nM LHRH agonist as competitor.
The Ki was determined by using the cheng-prusoff equation [13].

[3] = Stability in rat serum by LC-MS; type: in vitro ADME; details: for % of compound remaining, rat serum: 37 °C
Protocol: as §1

[4] = Stability in saline (0.9% NaCl) by LC-MS; type: physicochemical; details: ambient temperature, n = 1
Protocol: as §1, with “Aliquots were taken at 0, 60, 120 and 1560 min, then analysed by LC–MS.” left out

[5] = Stability in human serum by LC-MS; type: in vitro ADME; details: for % of compound remaining, human serum: 37 °C
Protocol: as §1

[6] = 120 min, mean ± SD n = 3, listed as compound 1

CC(C)(C)c1ccc(-c2nc3c(N4CCN(C(=O)C[123I])CC4)cccc3[nH]2)cc1 [[^123I]-Compound-1]
detection of intact radiotracer in blood by radio-HPLC [1]: did not detect
organ distribution, brain ([2]; 1 h post iv. injection): 0.03 % ID/g
organ distribution, stomach ([2]; 1 h post iv. injection): 3.6 % ID/g
organ distribution, testis ([2]; 1 h post iv. injection): 0.2 % ID/g
organ distribution, thyroid ([2]; 1 h post iv. injection): 1.2 % ID/g
organ distribution, stomach ([2]; 2 h post ip. administration): 2.5 % ID/g
organ distribution, thyroid ([2]; 2 h post ip. administration): 5.8 % ID/g
organ distribution, stomach ([2]; 5 h post ip. administration): 2 % ID/g
organ distribution, thyroid ([2]; 5 h post ip. administration): 13.1 % ID/g
SPECT VOI comparison (brain, non-brain region, background region) (Rat brain SPECT imaging; semi-quantitative SPECT analysis): no significant differences

CC(C)(C)c1ccc(-c2nc3c(N4CCN(Cc5ccc6nccnc6c5)CC4)cccc3[nH]2)cc1 [WAY207024, 6-({4-[2-(4-tert-butylphenyl)-1H-benzimidazol-4-yl]piperazin-1-yl}methyl)quinoxaline, reference compound]
Ki (hGnRHR): 0.0122 µM
IC50 (hGnRHR): 0.631 µM

CC(C)(C)c1ccc(-c2nc3c(N4CCN(C(=O)CI)CC4)cccc3[nH]2)cc1 [Compound-1]
% of compound remaining, rat serum ([3]; 0 min, 6.5 mM): 100%
% of compound remaining, rat serum ([3]; 10 min, mean ± SD n = 3): 86±7.3%
% of compound remaining, rat serum ([3]; 30 min, mean ± SD n = 3): 82±11.5%
% of compound remaining, rat serum ([3]; 60 min, mean ± SD n = 3): 44±5.5%
% of compound remaining, rat serum ([3]; 120 min, mean ± SD n = 3): approximately 30%
% of compound remaining, rat serum [3, 6]: 30±4.8%
% of compound remaining, rat serum ([3]; 240 min, mean ± SD n = 3): 8±1.6%
% of compound remaining, rat serum ([3]; 1320 min): 0%
decrease of compound in rat serum ([3]; after 1 h, LC-MS): 50%
% of compound remaining, saline ([4]; 0 min, 6.5 mM): 100%
% of compound remaining, saline ([4]; 60 min): 46%
% of compound remaining, saline ([4]; 120 min): 10%
% of compound remaining, saline ([4]; 1440 min (24 h)): 2%
% of compound remaining, saline ([4]; 1440 min (24 h), listed as compound 1): 1.6%
brain uptake in SPECT images (Rat brain SPECT imaging; iv. or ip. injection): no uptake; also recorded: did not show any uptake
% of compound remaining, human serum ([5]; 0 min, 5 mM): 100%
% of compound remaining, human serum ([5]; 10 min, mean ± SD n = 3): 88±1.6%
% of compound remaining, human serum ([5]; 30 min, mean ± SD n = 3): 74±8.1%
% of compound remaining, human serum ([5]; 60 min, mean ± SD n = 3): 52±1.5%
% of compound remaining, human serum ([5]; 120 min, mean ± SD n = 3): 23%
% of compound remaining, human serum [5, 6]: 23±1.6%
% of compound remaining, human serum ([5]; 240 min, mean ± SD n = 3): 3±0.3%
% of compound remaining, human serum ([5]; 1320 min): 0%
decrease of compound in human serum ([5]; after 1 h, LC-MS): 50%
Ki (hGnRHR): 0.082 µM
IC50 (hGnRHR): 5.13 µM
